Measurements reported in patent US11365192B2, “Pyridine compound substituted with azole” (TAISHO PHARMACEUTICAL CO., LTD., priority 2017, dated 2022).

How the values were obtained:
human CYP4F2 = human CYP4F2 (Homo sapiens (Human), UniProt P78329); assay: Inhibition test against 20-HETE producing enzyme CYP4F2 (luciferine derivative, luminescence); assay type: biochemical
Description: (§1) (1) Inhibition Test for Each Compound of the Present Invention Against 20-HETE Producing Enzymes (CYP4F2 and CYP4A11)
(§2) In the CYP4F2 inhibition test, the reaction solution containing each compound [final concentration of 50 mM, KPO4 (pH 7.4), 2.5 μM luciferine derivative, and 1 mM NADPH] was added to an Escherichia coli membrane fraction (100 μg/mL protein) in which human CYP4F2 had been expressed. In the CYP4A11 inhibition test, the reaction solution containing each compound [final concentration of 100 mM, Tris-HCl (pH 7.5), 60 μM luciferine derivative, 1.3 mM NADP^+, 3.3 mM Glucose 6-Phosphate, 3.3 mM MgCl2, and 0.4 U/mL Glucose 6-Phosphate dehydrogenase] was added to an Escherichia coli membrane fraction (100 μg/mL protein) in which human CYP4A11 had been expressed. Following this, the membrane fraction was left to stand at room temperature for 60 minutes to perform an enzymatic reaction. After the reaction, a luciferine detection reagent was added, and the luminescence value was measured using a plate reader. By using that value, the percent inhibition of 20-HETE producing enzyme (%) was calculated according to the equation described below, and the 50% inhibitory concentration (IC50 value) for each compound was calculated. Percent inhibition of 20-HETE producing enzyme (%)=[1−(A−B)/(C−B)]*100
(§3) A: Luminescence value with addition of compound
(§4) B: Luminescence value without addition of compound and enzyme

human CYP4A11 = human CYP4A11 (Homo sapiens (Human), UniProt Q02928); assay: Inhibition test against 20-HETE producing enzyme CYP4A11 (luciferine derivative, luminescence); assay type: biochemical
Description: as §1, §2, §3, §4

[1] = E. coli membrane fraction expressing human CYP4F2, 2.5 μM luciferine derivative, room temperature 60 minutes
[2] = E. coli membrane fraction expressing human CYP4A11, 60 μM luciferine derivative, room temperature 60 minutes
[3] = human CYP4F2, luciferine derivative, luminescence
[4] = human CYP4A11, luciferine derivative, luminescence

Chain of human CYP4F2 (P78329 5-520): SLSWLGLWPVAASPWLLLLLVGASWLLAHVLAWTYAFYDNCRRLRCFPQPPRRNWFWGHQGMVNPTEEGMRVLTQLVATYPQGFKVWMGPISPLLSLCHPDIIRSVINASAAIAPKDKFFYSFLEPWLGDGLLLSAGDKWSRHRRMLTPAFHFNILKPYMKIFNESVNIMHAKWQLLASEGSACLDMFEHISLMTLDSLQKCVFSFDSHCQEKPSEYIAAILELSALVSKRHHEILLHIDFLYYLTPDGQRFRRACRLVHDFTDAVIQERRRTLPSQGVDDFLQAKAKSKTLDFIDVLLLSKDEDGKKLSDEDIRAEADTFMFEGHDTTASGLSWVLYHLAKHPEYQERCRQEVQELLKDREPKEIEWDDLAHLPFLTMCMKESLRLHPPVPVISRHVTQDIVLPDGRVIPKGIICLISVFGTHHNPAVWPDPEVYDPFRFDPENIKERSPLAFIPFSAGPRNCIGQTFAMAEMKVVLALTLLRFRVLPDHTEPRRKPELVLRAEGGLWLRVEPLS
Chain of human CYP4A11 (Q02928 5-519): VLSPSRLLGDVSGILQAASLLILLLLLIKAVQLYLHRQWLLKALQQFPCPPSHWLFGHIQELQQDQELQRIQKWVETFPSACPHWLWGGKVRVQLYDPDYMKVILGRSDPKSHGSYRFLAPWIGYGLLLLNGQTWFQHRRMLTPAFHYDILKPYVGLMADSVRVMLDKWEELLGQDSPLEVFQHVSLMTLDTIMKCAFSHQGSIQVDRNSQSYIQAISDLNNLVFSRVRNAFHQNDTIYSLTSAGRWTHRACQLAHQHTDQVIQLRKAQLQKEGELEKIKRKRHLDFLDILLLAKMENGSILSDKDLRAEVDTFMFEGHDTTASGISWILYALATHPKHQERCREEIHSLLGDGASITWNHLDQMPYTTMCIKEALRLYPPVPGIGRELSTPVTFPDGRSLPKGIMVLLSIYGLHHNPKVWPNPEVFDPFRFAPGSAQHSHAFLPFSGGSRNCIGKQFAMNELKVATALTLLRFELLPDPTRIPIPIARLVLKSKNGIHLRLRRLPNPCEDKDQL

SMILES	IC50 (human CYP4F2; [1])	IC50 (human CYP4A11; [2])	IC50 (human CYP4F2; [3])	IC50 (human CYP4A11; [4])
O=C(O)C1CC1c1ccc(CCOc2ccc(-c3ccn[nH]3)nc2)c(F)c1 (single isomer, unassigned) [Example 71-17]			520 nM	250 nM
O=C(O)C1CC1c1cccc(COc2ccc(-c3ccn[nH]3)nc2)c1F (single isomer, unassigned) [Example 71-45, 2-[2-Fluoro-3-[[6-(1H-pyrazol-5-yl)pyridin-3-yl]oxymethyl]phenyl]cyclopropane-1-carboxylic Acid]			210 nM	15 nM
O=C(O)C1CC1c1ccc(F)c(CCOc2ccc(-c3ccn[nH]3)nc2)c1 (single isomer, unassigned) [Example 74-7]			1300 nM	78 nM
O=C(O)C1CC1c1ccc(F)c(CCOc2ccc(-c3ccn[nH]3)nc2)c1 (single isomer, unassigned) [Example 74-8]			410 nM	77 nM
O=C(O)C1CC1c1cc(F)cc(CCOc2ccc(-c3ccn[nH]3)nc2)c1 (single isomer, unassigned) [Example 74-10]			2600 nM	56 nM
O=C(O)C1CC1c1cc(F)cc(CCOc2ccc(-c3ccn[nH]3)nc2)c1 (single isomer, unassigned) [Example 74-11]			1200 nM	78 nM
O=C(O)C1CCc2ccc(COc3ccc(-c4[nH]ncc4Cl)nc3)cc2O1 (single isomer, unassigned) [Example 75-7]			20 nM	7.7 nM
O=C(O)C1CCc2ccc(COc3ccc(-c4[nH]ncc4Cl)nc3)cc2O1 (single isomer, unassigned) [Example 75-8]			67 nM	67 nM
CC(Oc1ccc(-c2ccn[nH]2)nc1)c1ccc(C(=O)O)cc1 (centres unmarked) [Example 1-2]	42000 nM	250 nM		
O=C(O)CCc1ccccc1COc1ccc(-c2ccn[nH]2)nc1 [Example 1-4]	16000 nM	110 nM		
O=C(O)c1ccccc1CCCOc1ccc(-c2ccn[nH]2)nc1 [Example 1-10]	27000 nM	4200 nM		
O=C(O)CCCc1ccccc1COc1ccc(-c2ccn[nH]2)nc1 [Example 1-11]	43000 nM	24 nM		
O=C(O)CCCCc1ccccc1COc1ccc(-c2ccn[nH]2)nc1 [Example 1-12]	> 50000 nM	170 nM		
O=C(O)C12CCC(COc3cnc(-c4ccn[nH]4)c(F)c3)(CC1)CC2 [Example 1-21]	31000 nM	29 nM		
Cc1cc(OCC23CCC(C(=O)O)(CC2)CC3)cnc1-c1ccn[nH]1 [Example 1-22]	> 50000 nM	38 nM		
O=C(O)CCC(=O)N1CCC[C@H](COc2ccc(-c3ccn[nH]3)nc2)C1 [Example 1-23]	20000 nM	320 nM		
O=C(O)CCC(=O)N1CCC[C@@H](COc2ccc(-c3ccn[nH]3)nc2)C1 [Example 1-24]	15000 nM	170 nM		
O=C(O)C1CC1CCCOc1ccc(-c2ccn[nH]2)nc1 (centres unmarked) [Example 1-27]	41000 nM	38 nM		
O=C(O)C1CC1CCCOc1ccc(-c2ccn[nH]2)nc1 (centres unmarked) [Example 1-28]	19000 nM	74 nM		
O=C(O)C1(CCCCOc2ccc(-c3ccn[nH]3)nc2)CCC1 [Example 1-33]	15000 nM	74 nM		
O=C(O)c1cc(COc2ccc(-c3ccn[nH]3)nc2)ccn1 [Example 1-40, 4-[[6-(1H-Pyrazol-5-yl)-3-pyridinyl]oxymethyl]-2-pyridinecarboxylic Acid]	15000 nM	580 nM		
O=C(O)C1CCC(COc2ccc(-c3ccn[nH]3)nc2)CC1 (centres unmarked) [Example 1-42]	25000 nM	52 nM		
CC(C)(CCCCCOc1ccc(-c2ccn[nH]2)nc1)C(=O)O [Example 1-43, 2,2-Dimethyl-7-[[6-(1H-pyrazol-5-yl)-3-pyridinyl]oxy]heptanoic Acid]	18000 nM	46 nM		

The remaining compounds from weak to strong by IC50 (human CYP4F2; [1]), led by results:

IC50 (human CYP4F2; [1])	IC50 (human CYP4A11; [2])	IC50 (human CYP4F2; [3])	IC50 (human CYP4A11; [4])	SMILES
15000 nM	37 nM			O=C(O)c1ccc(COc2ccc(-c3ccn[nH]3)nc2)cc1 [Example 1-1, 4-[[6-(1H-Pyrazol-5-yl)-3-pyridinyl]oxymethyl]benzoic Acid]
14000 nM	43 nM			O=C(O)C1CC(CCOc2ccc(-c3ccn[nH]3)nc2)C1 (centres unmarked) [Example 1-26]
11000 nM	2400 nM			O=C(O)c1ccccc1CCOc1ccc(-c2ccn[nH]2)nc1 [Example 1-7]
9800 nM	420 nM			CC(C)(CCc1cccc(COc2ccc(-c3ccn[nH]3)nc2)n1)C(=O)O [Example 1-39]
9200 nM	16 nM			O=C(O)C12CCC(COc3ccc(-c4[nH]ncc4Cl)nc3)(CC1)CC2 [Example 1-20]
7800 nM	21 nM			O=C(O)Cc1cccc(CCOc2ccc(-c3ccn[nH]3)nc2)c1 [Example 1-14]
5100 nM	16 nM			O=C(O)CCc1ccccc1CCCOc1ccc(-c2ccn[nH]2)nc1 [Example 1-17]
4100 nM	34 nM			O=C(O)C12CCC(CCCOc3ccc(-c4ccn[nH]4)nc3)(CC1)CC2 [Example 1-30]
3800 nM	9300 nM			CC(C)(CC(=O)N1CCCC(CCCOc2ccc(-c3ccn[nH]3)nc2)C1)C(=O)O (centres unmarked) [Example 1-32]
3700 nM	97 nM			O=C(O)c1cc(COc2ccc(-c3n[nH]cc3Cl)nc2)ccn1 [Example 1-41, 4-[[6-(4-Chloro-1H-pyrazol-3-yl)-3-pyridinyl]oxymethyl]-2-pyridinecarboxylic Acid]
3500 nM	150 nM			O=C(O)c1ccc(CCOc2ccc(-c3ccn[nH]3)nc2)cc1 [Example 1-5]
2700 nM	31 nM			O=C(O)Cc1ccc(CCOc2ccc(-c3ccn[nH]3)nc2)cc1 [Example 1-13]
2600 nM	78 nM			O=C(O)c1ccc(CCCOc2ccc(-c3ccn[nH]3)nc2)cc1 [Example 1-8]
2300 nM	340 nM			O=C(O)c1cccc(CCOc2ccc(-c3ccn[nH]3)nc2)c1 [Example 1-6]
2200 nM	84 nM			O=C(O)C1(CCCCOc2ccc(-c3ccn[nH]3)nc2)CCCCC1 [Example 1-35]
1900 nM	51 nM			O=C(O)[C@H]1CCC[C@H](COc2ccc(-c3ccn[nH]3)nc2)C1 (racemic) [Example 9-1, trans-3-[[6-(1H-Pyrazol-5-yl)-3-pyridinyl]oxymethyl]-1-cyclohexanecarboxylic Acid (Racemate)]

IC50 (human CYP4F2; [1])	IC50 (human CYP4A11; [2])	IC50 (human CYP4F2; [3])	IC50 (human CYP4A11; [4])	SMILES
1800 nM	38 nM			O=C(O)C1(CCCCOc2ccc(-c3ccn[nH]3)nc2)CCCC1 [Example 1-34]
1600 nM	120 nM			O=C(O)Cn1cc(-c2cccc(COc3ccc(-c4ccn[nH]4)nc3)c2)ccc1=O [Example 1-25]
1300 nM	25 nM			O=C(O)CC[C@H]1CCC[C@@H](COc2ccc(-c3ccn[nH]3)nc2)C1 (racemic) [Example 2-6, cis-3-[3-[[6-(1H-Pyrazol-5-yl)-3-pyridinyl]oxymethyl]cyclohexyl]propanoic Acid (Racemate)]
1300 nM	110 nM			CC(C)(Oc1cccc(CCCCOc2ccc(-c3ccn[nH]3)nc2)c1)C(=O)O [Example 1-36]
1200 nM	42 nM			CC(C)(CCc1cc(COc2ccc(-c3ccn[nH]3)nc2)ccn1)C(=O)O [Example 1-38]
1100 nM	36 nM			O=C(O)CCc1cccc(CCOc2ccc(-c3ccn[nH]3)nc2)c1 [Example 1-16]
670 nM	210 nM			O=C(O)CCc1ccc(CCOc2ccc(-c3ccn[nH]3)nc2)cc1 [Example 1-15]
510 nM	110 nM			O=C(O)C1(CCCCCCOc2ccc(-c3ccn[nH]3)nc2)CCCCC1 [Example 1-44]
480 nM	79 nM			O=C(O)c1cccc(CCCOc2ccc(-c3ccn[nH]3)nc2)c1 [Example 1-9]
400 nM	20 nM			O=C(O)C1CC1c1cccc(COc2ccc(-c3ccn[nH]3)nc2)c1 (single isomer, unassigned) [Example 26-1, trans-2-[3-[[6-(1H-Pyrazol-5-yl)-3-pyridinyl]oxymethyl]phenyl]-1-cyclopropanecarboxylic Acid]
360 nM	30 nM			O=C(O)C1CCCC(CCCOc2ccc(-c3ccn[nH]3)nc2)C1 (centres unmarked) [Example 1-29]
330 nM	14 nM			O=C(O)c1ccc(CCCCOc2ccc(-c3ccn[nH]3)nc2)cc1 [Example 1-18]
220 nM	79 nM			O=C(O)CCc1ccc(COc2ccc(-c3ccn[nH]3)nc2)cc1 [Example 1-3]
220 nM	9.5 nM			O=C(O)c1cccc(CCCCOc2ccc(-c3ccn[nH]3)nc2)c1 [Example 1-19]
160 nM	1700 nM			CC(C)(CC(=O)N1CCC(CCCOc2ccc(-c3ccn[nH]3)nc2)CC1)C(=O)O [Example 1-31]
94 nM	21 nM			O=C(O)c1cccc(S(=O)(=O)N2CCC[C@@H](COc3ccc(-c4ccn[nH]4)nc3)C2)c1 [Example 1-37]
